Laboratory results: patent US20240182495A1, “ANTIBACTERIAL COMPOUNDS” (JANSSEN SCIENCES IRELAND UNLIMITED COMPANY, priority 2021, published 2024)
pIC50: −log10 of the molar value. ≈ marks a conversion by molar mass, not a printed value.

Columns and labels:
[1] = system: Mycobacterium tuberculosis strain (EH4.0, GFP-expressing; Test 2: H37Rv); experiment: MIC determination against M. tuberculosis, Test 1 (and/or Test 2); format: cell-based; conditions: Mycobacterium tuberculosis, H37RV, 168 h, 7 days incubation, fluorescence
[2] = Chemical stability testing in DMSO, ACN/H2O, ACN/0.1N HCl, ACN/0.1N NaOH (% by LCMS); format: physicochemical
Description: Preliminary Protocol • Add 3 μl of a 10 mM DMSO stock solution to 1 ml of the following solvents in a 1.5 ml HPLC vial. • DMSO (reference solution) • H2O/Acetonitril 1/1 (assay solution) • 0.1N HCl/Acetonitril 1/1 (assay solution) • Mix well, […] LCMS • Compare the chromatograms of the two assay solutions with the reference solution and report the additional peaks as degradation peaks

physchem = format: physicochemical; conditions: 0.052 mg/mL in SGF with 33.3% ACN; remained so up to 4 hrs
M. tuberculosis H37Rv = conditions: strain H37Rv, inside macrophages; cited from earlier work

SMILES | pIC50 [1] | chemical stability (% by LCMS) ([2]; 48 h, 30 μM) [%] | chemical stability (% by LCMS) ([2]; 48 h, 30 μM, pH 1.6) [%] | chemical stability (% by LCMS) ([2]; 72 h, 30 µM) [%] | chemical stability (% by LCMS) ([2]; 72 h, 30 µM, pH 1.6) [%] | also measured
CCc1nc2ncc(C)cn2c1C(=O)NCc1ccc(-c2nc3n(n2)CCN(S(=O)(=O)N2CCCC2)C3)cc1 [Compound 47] | 7.70 | 99 | 100 | – | – | –
O=C(NCc1ccc(-c2nc3n(n2)CCN(S(=O)(=O)C(F)(F)F)C3)c(F)c1)c1c(C(F)(F)F)nc2ccccn12 [Compound 6] | 7.08 | 100 | 100 | – | – | purity (physchem): 99.88%
Cc1cnc2nc(C3CC3)c(C(=O)NCc3ccc(-c4nc5n(n4)CCN(S(=O)(=O)C(F)(F)F)C5)cc3)n2c1 [Compound 42] | 8.30 | 100 | 100 | – | – | –
CCc1nc2cc(N)c(Cl)cn2c1C(=O)NCc1ccc(-c2nc3n(n2)CCN(S(=O)(=O)C(F)(F)F)C3)c(F)c1 [Compound 14] | 6.98 | – | – | 100 | 100 | –
CCc1nc2cc(OC)c(Cl)cn2c1C(=O)NCc1ccc(-c2nc3n(n2)CCN(S(=O)(=O)C(F)(F)F)C3)c(F)c1 [Compound 10] | < 6.30 | – | – | 97.03 | 100 | –
CCc1nc2ccc(C)cn2c1C(=O)NCc1ccc(-c2nc3n(n2)CCN(S(=O)(=O)C(F)(F)F)C3)cc1 [Compound 24] | 8.05 | 100 | 100 | – | – | chemical stability (% by LCMS) ([2]; 0 h, 30 μM): 100%; chemical stability (% by LCMS) ([2]; 0 h, 30 μM, pH 1.6): 100%; chemical stability (% by LCMS) ([2]; 0 h, 30 μM, pH 9): 89.46%; chemical stability (% by LCMS) ([2]; 48 h, 30 μM, pH 9): 43.8%
CCc1nc2ccc(Cl)cn2c1C(=O)NCc1ccc(N2CCC(c3ccc(OC(F)(F)F)cc3)CC2)cc1 [Compound Q203] | – | – | – | – | – | MIC50 (M. tuberculosis H37Rv): 0.28 nM (≈ 0.156 ng/mL)
CCc1nc2ccc(Cl)cn2c1C(=O)NCc1cnc(-c2nc3n(n2)CCN(S(=O)(=O)C(F)(F)F)C3)c(F)c1 [Compound 15] | 6.30 | – | – | 97.03 | 97.49 | –
